Earlier results, collected in US6960571B2, “Methods and compositions for administration of iron for the treatment of restless leg syndrome” (Luitpold Pharmaceuticals, Inc., priority 2003, dated 2005).
Where two headings read alike, the source gives them in different places.

Compound: NC(=O)N1c2ccccc2C=Cc2ccccc21 [Carbamazepine]
- % affected by side effects (Epilepsy patients, fetal malformation, rash, hyponatremia, hepatotoxicity, blood disorders, ataxia, gastro-intestinal problems, sexual dysfunction, toxicity): 1-33%

Compound: O=C1CN=C(c2ccccc2Cl)c2cc([N+](=O)[O-])ccc2N1 [Clonazepam]
- % affected by side effects (Epilepsy patients, somnolence, depression, in-coordination): 6-37%

Compound: Clc1cccc(Cl)c1N=C1NCCN1 [Clonidine]
- % affected by side effects (Hypertension patients, reduced blood pressure, dermatitis, systemic side effects (dry mouth, somnolence, dizziness, headache)): 8-89%

Compound: NCC1(CC(=O)O)CCCCC1 [Gabapentin]
- % affected by side effects (Epilepsy patients, fatigue, dizziness, somnolence, ataxia): 11-19%

Compound: CCCN[C@H]1CCc2nc(N)sc2C1 [Pramipexole]
- % affected by side effects (Parkinson patients, somnolence, insomnia, nausea, constipation, hallucinations): 9-28%

Compound: Cc1nnc2n1-c1ccc(Cl)cc1C(c1ccccc1Cl)=NC2 [Triazolam]
- % affected by side effects (Insomnia patients, drowsiness, dizziness, memory impairment): 1-14%

Compound: Pergolide w/ levodopa/carbidopa
- % affected by side effects (Parkinson patients, dyskinesia, nausea, hallucinations, rhinitis, constipation, pain): 7-62%

Compound: levodopa/carbidopa
- % affected by side effects (Parkinson patients, dyskinesia, nausea, hallucinations): 4-17%
